# Laboratory results taken from ChEMBL document CHEMBL1201862, “PubChem BioAssay data set” (2004).
# The source made the active and inactive calls.
# Key:
# cells = format: functional
# [1] = microbe, parasite or virus in culture; format: functional; conditions: Mycobacterium tuberculosis
# Streptokinase A = biological target: T1, Streptokinase A (Streptococcus pyogenes serotype M1, UniProt P10520); experiment: S. pyogenes streptokinase expression inhibitors, potency, dose response, plasminogen activation absorbance, OD405 (AID 1914); format: functional, Streptococcus pyogenes M1 GAS;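 note: secreted streptokinase activity via plasminogen activation per viability signal from cell pellet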
# T1 sequence (P10520 whole entry): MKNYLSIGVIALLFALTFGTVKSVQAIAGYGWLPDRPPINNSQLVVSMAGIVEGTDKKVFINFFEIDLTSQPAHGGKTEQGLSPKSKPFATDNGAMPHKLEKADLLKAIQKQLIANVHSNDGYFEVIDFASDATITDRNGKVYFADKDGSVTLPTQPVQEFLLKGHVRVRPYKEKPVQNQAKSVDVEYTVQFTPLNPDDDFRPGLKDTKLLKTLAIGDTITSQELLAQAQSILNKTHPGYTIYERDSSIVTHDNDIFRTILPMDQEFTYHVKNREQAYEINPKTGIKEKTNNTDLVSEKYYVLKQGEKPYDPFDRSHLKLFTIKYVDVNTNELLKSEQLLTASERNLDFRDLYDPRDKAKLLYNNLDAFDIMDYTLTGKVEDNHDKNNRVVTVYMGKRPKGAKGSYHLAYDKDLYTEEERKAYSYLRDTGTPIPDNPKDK
# [2] = system: Streptococcus sp. 'group A'; experiment: growth inhibition of control SK(-) GAS strain, dose response, counter-screen for streptokinase expression inhibitor project, luminescence, kanamycin, BacTiterGlo, confirmation (AID 1900); format: functional, organism-based
# Streptococcus = experiment: Group A Streptococcus viability loss, dose response, counter-screen for streptokinase expression inhibitor project, luminescence, BacTiterGlo (AID 1915); format: functional, organism-based;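 note: potency for reduction of bacterial viability or growth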
# [3] = biological target: T2, Heat shock factor protein 1 (Mus musculus, UniProt P38532); experiment: HSF1 potentiators in luciferase reporter cells, confirmation, cell-based, NIH3T3, luminescence, dose retest (AID 435004); format: functional;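 note: stress induced by proteasome inhibitor MG132 added 30 min after compound; luciferase reporter driven by HSF1 response element in NIH3T3 cells; actives raise luminescence as potentiators of the MG132 stress response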
# T2 sequence (P38532 whole entry): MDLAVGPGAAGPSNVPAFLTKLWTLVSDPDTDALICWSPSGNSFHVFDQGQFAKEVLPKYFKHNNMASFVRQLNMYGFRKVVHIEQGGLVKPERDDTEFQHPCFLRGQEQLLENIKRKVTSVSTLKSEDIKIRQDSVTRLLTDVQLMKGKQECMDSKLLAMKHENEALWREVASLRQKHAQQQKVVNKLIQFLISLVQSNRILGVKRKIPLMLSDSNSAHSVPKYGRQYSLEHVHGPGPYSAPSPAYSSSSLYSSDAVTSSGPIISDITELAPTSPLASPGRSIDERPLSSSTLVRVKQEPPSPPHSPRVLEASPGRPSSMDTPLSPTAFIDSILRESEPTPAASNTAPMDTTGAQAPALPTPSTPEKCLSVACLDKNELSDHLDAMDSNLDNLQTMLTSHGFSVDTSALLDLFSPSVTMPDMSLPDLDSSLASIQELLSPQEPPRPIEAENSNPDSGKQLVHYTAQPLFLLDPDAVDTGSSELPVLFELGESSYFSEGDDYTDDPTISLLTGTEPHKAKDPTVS
# [4] = biological target: T3, Corticotropin-releasing factor receptor 2/Corticotropin-releasing factor-binding protein (Homo sapiens, UniProt P24387+Q13324); experiment: activators of CRF receptor 2 with binding protein – uHTS hits, confirmation (AID 602473); format: functional; conditions: read-out: EC50_Mean
# T3 sequence (Q13324 whole entry): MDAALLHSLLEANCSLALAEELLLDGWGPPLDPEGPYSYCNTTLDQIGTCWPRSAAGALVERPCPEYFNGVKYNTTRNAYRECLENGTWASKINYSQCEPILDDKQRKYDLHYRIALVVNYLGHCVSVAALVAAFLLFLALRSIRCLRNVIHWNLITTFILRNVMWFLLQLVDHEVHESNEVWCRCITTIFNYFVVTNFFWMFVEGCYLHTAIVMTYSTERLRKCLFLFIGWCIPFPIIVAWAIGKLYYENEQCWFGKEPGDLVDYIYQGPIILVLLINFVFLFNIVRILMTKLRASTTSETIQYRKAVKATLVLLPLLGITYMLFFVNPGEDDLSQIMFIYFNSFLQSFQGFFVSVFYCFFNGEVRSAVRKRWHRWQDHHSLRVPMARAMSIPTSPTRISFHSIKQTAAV
# T3 sequence (P24387 whole entry): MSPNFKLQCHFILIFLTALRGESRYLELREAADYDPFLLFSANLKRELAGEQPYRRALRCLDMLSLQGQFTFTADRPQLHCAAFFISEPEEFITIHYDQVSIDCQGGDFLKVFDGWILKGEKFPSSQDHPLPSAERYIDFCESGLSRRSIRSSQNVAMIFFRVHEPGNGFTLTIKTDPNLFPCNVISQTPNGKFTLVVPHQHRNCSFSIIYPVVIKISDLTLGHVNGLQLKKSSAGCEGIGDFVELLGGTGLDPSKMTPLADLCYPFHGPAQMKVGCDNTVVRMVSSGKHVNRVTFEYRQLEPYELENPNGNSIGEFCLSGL
# [5] = biological target: T3, Corticotropin-releasing factor receptor 2/Corticotropin-releasing factor-binding protein; experiment: Dose Response confirmation of uHTS hits for small molecule antagonists of the CRF-binding protein and CRF-R2 receptor complex.; format: functional; conditions: read-out: IC50_Mean
# Fatty acid synthase [6] = biological target: T4, Fatty acid synthase (Homo sapiens, UniProt P49327); experiment: FAS thioesterase domain inhibitors, dose response, biochemical, endpoint fluorescence intensity, uHTS hits (AID 624327); format: functional;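 note: fluorescence from hydrolysis of an O-methyl fluorescein acyl ester substrate by the enzyme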
# T4 sequence (P49327 whole entry, the tested form may be a part): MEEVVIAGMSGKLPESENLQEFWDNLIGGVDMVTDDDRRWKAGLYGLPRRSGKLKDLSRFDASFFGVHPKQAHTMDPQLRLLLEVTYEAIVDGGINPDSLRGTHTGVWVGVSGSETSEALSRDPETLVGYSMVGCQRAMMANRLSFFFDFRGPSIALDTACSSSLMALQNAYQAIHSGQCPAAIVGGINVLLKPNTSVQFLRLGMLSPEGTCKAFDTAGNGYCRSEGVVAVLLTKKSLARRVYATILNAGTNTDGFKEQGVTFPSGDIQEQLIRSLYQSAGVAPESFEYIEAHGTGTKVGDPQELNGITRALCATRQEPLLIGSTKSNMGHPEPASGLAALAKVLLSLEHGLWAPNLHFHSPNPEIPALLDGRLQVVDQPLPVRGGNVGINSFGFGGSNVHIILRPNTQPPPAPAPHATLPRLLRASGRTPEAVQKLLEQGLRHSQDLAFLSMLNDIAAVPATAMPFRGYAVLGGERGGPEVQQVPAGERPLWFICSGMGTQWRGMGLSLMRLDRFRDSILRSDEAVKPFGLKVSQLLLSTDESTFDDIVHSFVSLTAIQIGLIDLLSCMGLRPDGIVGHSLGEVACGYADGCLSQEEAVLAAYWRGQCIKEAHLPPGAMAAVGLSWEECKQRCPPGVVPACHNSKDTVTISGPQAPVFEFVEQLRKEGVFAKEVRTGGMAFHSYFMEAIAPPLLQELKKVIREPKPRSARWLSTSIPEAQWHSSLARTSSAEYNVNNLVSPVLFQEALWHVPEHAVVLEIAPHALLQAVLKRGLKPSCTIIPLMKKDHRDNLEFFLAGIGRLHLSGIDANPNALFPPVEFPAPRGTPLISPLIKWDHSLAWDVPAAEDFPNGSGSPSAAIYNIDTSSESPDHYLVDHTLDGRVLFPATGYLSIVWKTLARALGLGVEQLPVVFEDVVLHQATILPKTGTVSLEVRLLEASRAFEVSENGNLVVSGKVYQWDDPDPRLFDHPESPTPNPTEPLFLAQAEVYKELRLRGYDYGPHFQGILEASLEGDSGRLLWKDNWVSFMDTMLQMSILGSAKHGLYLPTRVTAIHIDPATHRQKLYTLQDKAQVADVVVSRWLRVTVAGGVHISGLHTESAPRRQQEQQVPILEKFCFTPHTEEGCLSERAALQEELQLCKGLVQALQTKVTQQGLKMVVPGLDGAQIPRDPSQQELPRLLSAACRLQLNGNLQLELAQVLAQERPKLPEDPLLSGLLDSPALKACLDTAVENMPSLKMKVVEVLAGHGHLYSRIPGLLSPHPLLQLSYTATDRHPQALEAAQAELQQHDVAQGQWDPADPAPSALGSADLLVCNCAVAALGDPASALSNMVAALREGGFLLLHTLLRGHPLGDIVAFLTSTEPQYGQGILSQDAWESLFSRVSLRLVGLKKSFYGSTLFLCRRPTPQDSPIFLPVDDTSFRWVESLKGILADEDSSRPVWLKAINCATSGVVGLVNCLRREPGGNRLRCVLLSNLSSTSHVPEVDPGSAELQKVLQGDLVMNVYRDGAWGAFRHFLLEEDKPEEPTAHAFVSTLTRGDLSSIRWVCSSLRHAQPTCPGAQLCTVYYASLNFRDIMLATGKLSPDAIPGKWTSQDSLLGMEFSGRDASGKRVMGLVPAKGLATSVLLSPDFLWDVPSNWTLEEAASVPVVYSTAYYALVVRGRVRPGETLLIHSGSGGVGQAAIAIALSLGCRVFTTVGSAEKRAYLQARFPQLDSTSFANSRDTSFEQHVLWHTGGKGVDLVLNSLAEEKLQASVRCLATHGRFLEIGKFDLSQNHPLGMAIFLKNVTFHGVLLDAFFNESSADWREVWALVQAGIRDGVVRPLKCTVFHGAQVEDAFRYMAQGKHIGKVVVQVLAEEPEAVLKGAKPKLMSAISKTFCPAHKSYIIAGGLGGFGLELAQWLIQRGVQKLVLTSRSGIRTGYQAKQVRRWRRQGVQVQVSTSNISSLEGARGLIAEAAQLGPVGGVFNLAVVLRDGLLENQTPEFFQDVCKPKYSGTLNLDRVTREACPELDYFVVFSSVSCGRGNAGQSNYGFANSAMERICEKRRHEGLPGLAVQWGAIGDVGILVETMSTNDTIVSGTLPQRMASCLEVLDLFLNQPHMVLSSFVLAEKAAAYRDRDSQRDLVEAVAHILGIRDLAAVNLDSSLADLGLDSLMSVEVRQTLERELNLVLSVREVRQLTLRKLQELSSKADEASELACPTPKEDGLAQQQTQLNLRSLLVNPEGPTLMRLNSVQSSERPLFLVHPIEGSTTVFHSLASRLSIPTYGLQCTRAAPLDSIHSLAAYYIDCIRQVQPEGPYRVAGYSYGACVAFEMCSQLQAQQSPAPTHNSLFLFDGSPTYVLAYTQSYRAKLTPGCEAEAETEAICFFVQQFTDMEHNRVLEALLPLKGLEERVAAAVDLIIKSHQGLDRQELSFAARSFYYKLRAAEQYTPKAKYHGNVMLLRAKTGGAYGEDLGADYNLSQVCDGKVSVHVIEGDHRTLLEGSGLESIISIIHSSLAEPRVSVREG
# Fatty acid synthase [7] = biological target: T4, Fatty acid synthase; experiment: FAS thioesterase domain inhibitors, dose response, biochemical, kinetic fluorescence intensity (AID 624326); format: functional;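 note: rate of fluorescence rise from hydrolysis of a fluorogenic O-methyl fluorescein ester substrate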
# [8] = cytotoxicity in HEK-293T cells, dose response, cytotoxicity control for TCR NF-kB inhibitor project, luminescence, T-cell screen hits (AID 489026); format: functional, cell-based;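 note: cells exposed to compound about 14 hours before the viability readout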
# [9] = biological target: T5, Rac GTPase-activating protein 1 (Homo sapiens, UniProt Q9H0H5); experiment: MgcRacGAP GTPase-activating activity inhibitors, confirmation, biochemical, ADP Hunter fluorescence, primary and confirmatory (AID 624330); format: functional
# T5 sequence (Q9H0H5 whole entry): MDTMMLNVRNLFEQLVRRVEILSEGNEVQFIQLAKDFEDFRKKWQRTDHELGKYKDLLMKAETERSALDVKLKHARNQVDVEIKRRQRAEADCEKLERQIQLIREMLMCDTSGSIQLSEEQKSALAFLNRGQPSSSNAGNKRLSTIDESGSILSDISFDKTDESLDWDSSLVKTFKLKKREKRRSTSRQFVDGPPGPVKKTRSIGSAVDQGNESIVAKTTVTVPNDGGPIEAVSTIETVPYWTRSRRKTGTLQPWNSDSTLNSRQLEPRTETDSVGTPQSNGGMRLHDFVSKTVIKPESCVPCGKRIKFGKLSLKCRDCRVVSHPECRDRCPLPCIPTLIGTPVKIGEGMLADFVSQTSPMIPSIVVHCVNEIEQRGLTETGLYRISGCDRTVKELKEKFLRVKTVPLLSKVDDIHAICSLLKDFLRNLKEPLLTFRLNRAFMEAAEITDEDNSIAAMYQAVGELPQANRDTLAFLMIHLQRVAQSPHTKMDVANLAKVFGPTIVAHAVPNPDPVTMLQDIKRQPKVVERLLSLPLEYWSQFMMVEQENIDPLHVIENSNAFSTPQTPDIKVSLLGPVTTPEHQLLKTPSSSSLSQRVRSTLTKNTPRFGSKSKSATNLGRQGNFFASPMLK
compound,measurement,setting,value
O=C1NCC(O)=C1/C=N/c1ccccc1O,IC50,cells,4.46 µM (active)
same,CC50,[1],> 40 µM (active)
CC1Cc2ccccc2N1C(=S)NC(=O)c1ccc(Cl)cc1Cl (centres undefined),EC50,Streptokinase A,> 150 µM (not active)
same,EC50,[2],5.96 µM (active)
same,CC50,[1],33 µM (active)
same,EC50,Streptococcus,13.7 µM (active)
CCc1ccc(NC(=O)CSc2nc3nnc(C)c-3c(N)n2-c2cccc(OC)c2)cc1,EC50,[3],118 µM (active)
same,CC50,[1],22.6 µM (active)
COc1ccc(NC(=O)CCN2CCCCCC2)cc1,EC50,[4],> 53 µM (inactive)
same,IC50,[5],> 47.1 µM (inactive)
COc1ccc(C(=O)OCC(=O)NCCCc2ccccc2)cc1[N+](=O)[O-],IC50,Fatty acid synthase [6],4.1 µM (active)
same,IC50,Fatty acid synthase [7],4.84 µM (active)
CCCN(C(=O)CCOc1ccc(C(C)(C)C)cc1)c1c(N)n(Cc2ccccc2)c(=O)[nH]c1=O,CC50,[1],> 40 µM (active)
O=C(NCCOc1ccccc1)c1cc([N+](=O)[O-])ccc1N1CCOCC1,IC50,[8],> 80 µM (inactive)
CCCCCN(CCCCC)C(=O)C(CCC(=O)O)NC(=O)c1ccc(Cl)c(Cl)c1 (centres undefined) [LORGLUMIDE SODIUM],IC50,Fatty acid synthase [6],5.09 µM (active)
same,IC50,Fatty acid synthase [7],5.31 µM (active)
COc1ccc(C(=O)N/C(=C\c2cn(S(=O)(=O)N(C)C)c3ccccc23)C(=O)N2CCCC2)cc1,IC50,Fatty acid synthase [6],1.47 µM (active)
same,IC50,Fatty acid synthase [7],4.3 µM (active)
Cc1ccc2c(c1)C(C)CC(C)(C)N2C(=O)CN1CCN(C)CC1 (centres undefined),EC50,[4],> 53 µM (inactive)
same,IC50,[9],73.3 µM (active)
same,IC50,[5],> 47.1 µM (inactive)
CCN(CC)S(=O)(=O)c1ccc(NC(=O)c2ccc(CN3CCOCC3)cc2)cc1,IC50,[8],> 80 µM (inactive)
CC(=O)N(Cc1ccco1)c1nc(C(=O)Nc2ccc(Cl)cc2)c(C)s1,EC50,[4],> 53 µM (inactive)
same,IC50,[5],> 47.1 µM (inactive)
